This is an account of results in publication PMC9005681, “Use of AD Informer Set compounds to explore validity of novel targets in Alzheimer's disease pathology” (Alzheimer's & Dementia : Translational Research & Clinical …, 2022).

Read-outs that look alike come from different tables or passages of the source.

In general, Ki refers to a dissociation constant, usually derived from enzyme kinetics or from competition with a known ligand.

Data set [1] deals with tau hyperphosphorylation species (Ser396 and Ser404). On the set-up: method as in PMID 32488482. The note with it: 5 mg/kg/day; cited from earlier work.
The test system of the next data set is human nerve cells. On the set-up: method as in PMID 31378059. The note with it: cited from earlier work.
For data set [2], the system named is N2a cells stably expressing wild-type PS1 and myc-tagged Swedish mutant APP (APPsw). On the set-up: method as in PMID 16354722. To be noted: cited from earlier work.
A further data set concerns the target T1, serotonin transporter (Homo sapiens, UniProt P31645).
T1 construct: expressed in transfected cells
Kind of data set: PDSP secondary binding, serotonin transporter. On the set-up: species or system human or rodent. The method, then:
(§1) GPCR panel: Screening against the receptors within the PDSP panel offers an assessment of off-target pharmacological activity at cloned human or rodent CNS receptors, channels, and transporters that could confound CNS-related phenotypes. A total of 46–47 primary binding assays were run in quadruplicate on these compounds at 10 μM, with follow-up secondary binding assays in 11-point dose-response in triplicate for select compounds versus select receptors. Secondary binding assays were executed for all receptors where test compound displaced an average of >50% of radio-labeled standard ligand. As an exception, no secondary assays were carried out for H3, PBR, or GABAA. […]

For a further data set, the target named is T2, H4 receptor (Homo sapiens, UniProt Q9H3N8).
T2 construct: expressed in transfected cells
T2 sequence (Q9H3N8 whole entry): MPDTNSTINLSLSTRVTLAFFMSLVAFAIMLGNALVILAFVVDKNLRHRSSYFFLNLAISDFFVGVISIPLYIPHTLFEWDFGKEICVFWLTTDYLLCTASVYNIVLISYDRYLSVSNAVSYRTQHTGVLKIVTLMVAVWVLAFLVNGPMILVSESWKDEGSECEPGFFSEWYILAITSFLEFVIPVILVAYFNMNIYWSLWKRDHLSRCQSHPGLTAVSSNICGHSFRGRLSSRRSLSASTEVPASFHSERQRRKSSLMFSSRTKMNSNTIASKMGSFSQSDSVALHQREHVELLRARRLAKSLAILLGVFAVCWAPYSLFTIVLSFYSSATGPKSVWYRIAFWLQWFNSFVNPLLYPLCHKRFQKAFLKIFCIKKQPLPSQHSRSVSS
Briefly: PDSP secondary binding, H4. Details: species or system human or rodent. The protocol: as §1

For a further data set, the target named is T3, 5-HT2A receptor (Homo sapiens, UniProt P28223).
T3 construct: expressed in transfected cells
T3 sequence (P28223 whole entry): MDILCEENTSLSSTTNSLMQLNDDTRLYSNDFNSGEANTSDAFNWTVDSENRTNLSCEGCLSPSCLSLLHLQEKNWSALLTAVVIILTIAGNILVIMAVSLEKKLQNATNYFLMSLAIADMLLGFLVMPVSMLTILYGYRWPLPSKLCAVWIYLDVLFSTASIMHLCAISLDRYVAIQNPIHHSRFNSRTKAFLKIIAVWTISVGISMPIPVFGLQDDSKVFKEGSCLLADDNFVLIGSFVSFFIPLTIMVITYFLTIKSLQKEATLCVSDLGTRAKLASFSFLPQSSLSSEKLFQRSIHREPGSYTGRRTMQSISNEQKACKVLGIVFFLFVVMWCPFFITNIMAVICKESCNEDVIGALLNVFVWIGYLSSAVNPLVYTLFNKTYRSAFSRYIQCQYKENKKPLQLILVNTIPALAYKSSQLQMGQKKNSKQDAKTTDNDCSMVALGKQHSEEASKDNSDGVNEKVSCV
Briefly: PDSP secondary binding, 5-HT2A. On the set-up: species or system human or rodent. The protocol: as §1

Data set [3] concerns the target T4, norepinephrine transporter (Homo sapiens, UniProt P23975).
T4 construct: expressed in transfected cells
Kind of data set: PDSP secondary binding, norepinephrine transporter. Details: species or system human or rodent. The method, then: as §1

In another data set the test system is FLT3. On the set-up: method as in PubMed 25068800, 27649555. To be noted: published affinity; ref PubMed 25068800, 27649555; cited from earlier work.
In data set [4] the test system is HMC3 (human microglia) immortalized cell line. The note with it: 10 μM, human immortalized microglial cells; cited from earlier work.
In the next data set the test system is MerTK. Details: method as in PubMed 25068800, 27649555. The note with it: published affinity; ref PubMed 25068800, 27649555; cited from earlier work.
The target of the next data set is T5, Alpha1D receptor (Homo sapiens, UniProt P25100).
T5 construct: expressed in transfected cells
T5 sequence (P25100 whole entry): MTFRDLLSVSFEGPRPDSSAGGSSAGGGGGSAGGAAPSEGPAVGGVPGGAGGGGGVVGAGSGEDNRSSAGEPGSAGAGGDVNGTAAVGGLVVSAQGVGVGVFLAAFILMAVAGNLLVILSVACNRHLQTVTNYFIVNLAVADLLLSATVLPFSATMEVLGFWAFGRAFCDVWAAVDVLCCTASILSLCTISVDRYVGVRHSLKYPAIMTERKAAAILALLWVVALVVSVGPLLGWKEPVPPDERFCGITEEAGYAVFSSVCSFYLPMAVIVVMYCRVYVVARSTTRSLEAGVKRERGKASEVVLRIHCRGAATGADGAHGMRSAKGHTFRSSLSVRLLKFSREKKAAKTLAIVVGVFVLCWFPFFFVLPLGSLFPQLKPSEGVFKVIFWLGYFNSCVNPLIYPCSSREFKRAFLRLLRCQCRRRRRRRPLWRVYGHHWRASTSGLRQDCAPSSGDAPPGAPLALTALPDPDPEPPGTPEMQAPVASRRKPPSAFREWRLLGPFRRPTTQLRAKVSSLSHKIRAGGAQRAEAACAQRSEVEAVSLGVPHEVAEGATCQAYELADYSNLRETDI
Briefly: PDSP secondary binding, Alpha1D. Details: species or system human or rodent. The protocol:
as §1

T4 sequence (P23975 whole entry): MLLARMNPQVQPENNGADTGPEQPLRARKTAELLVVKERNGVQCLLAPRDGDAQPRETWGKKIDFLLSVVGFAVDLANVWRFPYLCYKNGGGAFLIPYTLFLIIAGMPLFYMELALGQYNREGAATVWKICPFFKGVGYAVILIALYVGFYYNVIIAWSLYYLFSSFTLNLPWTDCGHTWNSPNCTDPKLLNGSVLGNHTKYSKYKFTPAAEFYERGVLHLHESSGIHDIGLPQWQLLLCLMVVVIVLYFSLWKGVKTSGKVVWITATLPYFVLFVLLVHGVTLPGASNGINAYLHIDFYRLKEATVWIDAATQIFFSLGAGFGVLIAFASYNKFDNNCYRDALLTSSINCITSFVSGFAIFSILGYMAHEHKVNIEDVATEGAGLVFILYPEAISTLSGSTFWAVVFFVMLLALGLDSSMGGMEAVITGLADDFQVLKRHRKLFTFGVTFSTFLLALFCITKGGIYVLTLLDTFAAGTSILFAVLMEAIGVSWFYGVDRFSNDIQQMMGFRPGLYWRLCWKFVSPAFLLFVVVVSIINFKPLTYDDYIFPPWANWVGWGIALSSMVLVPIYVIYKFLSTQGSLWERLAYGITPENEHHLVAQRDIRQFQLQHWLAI
T1 sequence (P31645 whole entry): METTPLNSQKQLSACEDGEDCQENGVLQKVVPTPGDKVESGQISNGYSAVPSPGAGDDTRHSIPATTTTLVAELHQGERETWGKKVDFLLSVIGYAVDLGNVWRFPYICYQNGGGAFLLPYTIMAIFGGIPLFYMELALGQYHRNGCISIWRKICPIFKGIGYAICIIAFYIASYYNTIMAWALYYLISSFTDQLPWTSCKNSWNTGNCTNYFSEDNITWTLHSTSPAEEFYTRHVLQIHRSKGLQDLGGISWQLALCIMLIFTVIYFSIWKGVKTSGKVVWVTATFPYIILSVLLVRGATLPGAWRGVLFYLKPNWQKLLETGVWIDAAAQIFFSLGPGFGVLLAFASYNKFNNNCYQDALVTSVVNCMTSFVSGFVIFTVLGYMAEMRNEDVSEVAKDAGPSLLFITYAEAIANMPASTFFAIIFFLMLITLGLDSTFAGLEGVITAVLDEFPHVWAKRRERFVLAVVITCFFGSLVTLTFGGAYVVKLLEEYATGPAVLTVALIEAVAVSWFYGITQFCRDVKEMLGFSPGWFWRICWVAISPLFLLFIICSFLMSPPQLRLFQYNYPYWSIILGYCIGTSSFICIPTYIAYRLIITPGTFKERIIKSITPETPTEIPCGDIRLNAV

On to `CCC(=O)N1CCC(NC(=O)Nc2ccc(OC(F)(F)F)cc2)CC1` [UNC10302681A, TPPU], for which, in data set [1], the “Tau hyperphosphorylation species (Ser396 and Ser404)” value is on record as “reduction of tau hyperphosphorylation species”. Besides, the Tau hyperphosphorylation entry in the data set on human nerve cells was “prevent tau hyperphosphorylation”.

As for MDL 28170 [UNC10302675A], the “Secretion of Aβ40 and Aβ42” value in data set [2] (30 μM for 24 hours) is recorded as “did not inhibit”. Moreover, the “Levels of secreted Aβ40 and Aβ42” value in data set [2] (30 μM, between 24 and 48 hours) is given as “increased dramatically”. For the same compound, the “Response in secreted Aβ40 or Aβ42” value in data set [2] (concentrations < 5 μM, 48 hours) is “did not result in a response”.

As to `CCCCNc1ncc2c(-c3ccc(CN4CCN(C)CC4)cc3)cn([C@H]3CC[C@H](O)CC3)c2n1` [UNC2025C, UNC2025], the Ki at serotonin transporter (Receptor SERT, secondary assay, read-out: Ki (nM) 1) was 906 nM; on serotonin transporter (calculated Ki, secondary binding assay, read-out: Ki serotonin transporter), 900 nM; at H4 receptor (Receptor H4, secondary assay, read-out: Ki (nM) 1) it was 4000 nM; on H4 receptor (calculated Ki, secondary binding assay, read-out: Ki H4), 4000 nM; at 5-HT2A receptor (Receptor 5-HT2A, secondary assay, run 1, read-out: Ki (nM) 1), 366 nM; at 5-HT2A receptor (Receptor 5-HT2A, secondary assay, run 2, read-out: Ki (nM) 2), 462 nM. Also, the inhibition constant Ki on 5-HT2A receptor (calculated Ki, secondary binding assay, read-out: Ki 5-HT2A) is 400 nM; in data set [3] (Receptor NET, secondary assay, read-out: Ki (nM) 1) it was 1400 nM; in data set [3] (calculated Ki, secondary binding assay, read-out: Ki norepinephrine transporter), 1400 nM; on Alpha1D receptor (Receptor Alpha1D, secondary assay, read-out: Ki (nM) 1), 4960 nM; on Alpha1D receptor (calculated Ki, secondary binding assay, read-out: Ki Alpha1D), 5000 nM. In addition, the “Reported on-target biochemical potency, FLT3” value in the data set on FLT3 is 0.8 nM. For the same compound, the “Human microglial cytotoxicity at 10 μM (<70% control)” value in data set [4] is recorded as “Y (The compound was found to be cytotoxic (cell count threshold: <70% control) when human immortalized microglial cells were dosed at 10 μM (Y: yes))”. Moreover, the “Reported on-target biochemical potency, MERTK” value in the data set on MerTK is recorded as 0.74 nM.
